# Measured values as given in ChEMBL document CHEMBL5465560, “Selectivity Literature for EUbOPEN Chemogenomic Library” (2024).
# What was measured:
# [1] = target: Protein kinase C alpha type (Homo sapiens, UniProt P17252); experiment: Selectivity interaction (Millipore kinase profiler) EUB0000124b PRKCA; conditions: at 10 µM
# [2] = target: Serine/threonine-protein kinase 26 (Homo sapiens, UniProt Q9P289); conditions: at 1 µM
# [3] = target: Mitogen-activated protein kinase kinase kinase kinase 1 (Homo sapiens) (UniProt Q92918); experiment: Selectivity interaction (ActivX KiNativ screen (ex vivo kinase selectivity in human PBMCs)) EUB0001619a MAP4K1; assay type: cell-based; conditions: PBMC, at 1 µM
# Sequence of Mitogen-activated protein kinase kinase kinase kinase 1 (Homo sapiens) (Q92918 whole entry, looked up): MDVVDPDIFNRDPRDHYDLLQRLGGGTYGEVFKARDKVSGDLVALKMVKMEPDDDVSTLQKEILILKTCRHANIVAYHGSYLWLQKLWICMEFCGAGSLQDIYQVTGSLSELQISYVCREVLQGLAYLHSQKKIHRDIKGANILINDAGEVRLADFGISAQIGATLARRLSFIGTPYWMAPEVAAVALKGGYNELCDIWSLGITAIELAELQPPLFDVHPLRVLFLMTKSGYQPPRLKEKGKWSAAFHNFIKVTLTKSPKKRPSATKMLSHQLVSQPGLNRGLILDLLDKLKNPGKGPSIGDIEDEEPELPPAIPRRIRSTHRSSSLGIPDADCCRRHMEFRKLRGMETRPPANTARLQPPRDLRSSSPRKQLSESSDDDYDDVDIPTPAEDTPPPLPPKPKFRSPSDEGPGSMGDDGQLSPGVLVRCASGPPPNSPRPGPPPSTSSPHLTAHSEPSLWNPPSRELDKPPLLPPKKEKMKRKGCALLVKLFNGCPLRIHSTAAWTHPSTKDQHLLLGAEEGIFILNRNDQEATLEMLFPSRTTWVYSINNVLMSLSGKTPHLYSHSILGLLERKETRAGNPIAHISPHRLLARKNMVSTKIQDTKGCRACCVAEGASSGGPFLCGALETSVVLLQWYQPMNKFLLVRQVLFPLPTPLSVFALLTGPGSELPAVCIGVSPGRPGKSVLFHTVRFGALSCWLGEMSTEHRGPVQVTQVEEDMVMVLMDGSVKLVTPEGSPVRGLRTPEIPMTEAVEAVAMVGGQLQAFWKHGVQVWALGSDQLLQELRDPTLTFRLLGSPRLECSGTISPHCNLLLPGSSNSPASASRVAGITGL
# [4] = target: T1, Inhibitor of nuclear factor kappa-B kinase subunit alpha (Homo sapiens) (UniProt O15111); experiment: Selectivity interaction (Kinase panel (Invitrogen)) EUB0000639a CHUK; conditions: at 200 nM
# T1 sequence (whole entry): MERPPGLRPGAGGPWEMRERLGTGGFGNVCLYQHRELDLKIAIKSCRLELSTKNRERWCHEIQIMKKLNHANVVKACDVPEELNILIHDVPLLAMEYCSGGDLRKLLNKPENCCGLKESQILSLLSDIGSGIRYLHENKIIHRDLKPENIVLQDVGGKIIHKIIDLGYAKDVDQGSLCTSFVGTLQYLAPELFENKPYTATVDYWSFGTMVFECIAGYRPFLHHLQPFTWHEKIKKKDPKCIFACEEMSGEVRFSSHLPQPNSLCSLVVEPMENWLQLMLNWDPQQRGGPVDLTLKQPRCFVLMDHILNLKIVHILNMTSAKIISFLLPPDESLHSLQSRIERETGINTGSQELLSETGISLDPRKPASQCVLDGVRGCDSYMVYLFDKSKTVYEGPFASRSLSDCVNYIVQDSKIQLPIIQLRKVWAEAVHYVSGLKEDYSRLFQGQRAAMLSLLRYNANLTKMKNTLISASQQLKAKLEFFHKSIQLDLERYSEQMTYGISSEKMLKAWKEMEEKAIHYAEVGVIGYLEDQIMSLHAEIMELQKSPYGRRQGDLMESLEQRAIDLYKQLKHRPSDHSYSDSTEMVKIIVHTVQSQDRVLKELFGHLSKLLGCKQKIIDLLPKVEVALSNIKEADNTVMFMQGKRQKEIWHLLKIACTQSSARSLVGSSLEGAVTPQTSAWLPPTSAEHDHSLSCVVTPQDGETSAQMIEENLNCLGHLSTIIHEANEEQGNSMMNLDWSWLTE
# [5] = target: T2, Protein kinase C iota type (Homo sapiens) (UniProt P41743); experiment: Selectivity interaction (KinomeScan (DiscoverX)) EUB0000229b PRKCI; conditions: at 10 µM
# T2 sequence (whole entry): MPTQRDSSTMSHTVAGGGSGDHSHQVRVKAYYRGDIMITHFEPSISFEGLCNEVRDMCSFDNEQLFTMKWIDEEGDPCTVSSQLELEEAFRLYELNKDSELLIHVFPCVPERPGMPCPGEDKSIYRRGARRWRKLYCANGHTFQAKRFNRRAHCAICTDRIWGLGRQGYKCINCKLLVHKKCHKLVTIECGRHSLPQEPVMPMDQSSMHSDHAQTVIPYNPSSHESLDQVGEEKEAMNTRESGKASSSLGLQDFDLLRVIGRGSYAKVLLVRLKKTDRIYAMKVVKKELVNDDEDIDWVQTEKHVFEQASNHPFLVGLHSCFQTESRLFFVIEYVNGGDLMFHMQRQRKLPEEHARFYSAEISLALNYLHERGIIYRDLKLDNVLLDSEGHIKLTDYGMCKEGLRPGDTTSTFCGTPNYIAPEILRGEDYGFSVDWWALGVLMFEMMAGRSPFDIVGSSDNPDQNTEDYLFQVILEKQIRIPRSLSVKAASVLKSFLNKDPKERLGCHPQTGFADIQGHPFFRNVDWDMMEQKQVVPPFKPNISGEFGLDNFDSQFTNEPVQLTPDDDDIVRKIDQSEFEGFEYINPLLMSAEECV
# [6] = system: Epidermal growth factor receptor (Homo sapiens), P00533 [UNDEFINED MUTATION]; experiment: Selectivity interaction (KinomeScan (DiscoverX)) EUB0000229b EGFR; conditions: at 1 µM
# Sequence of Epidermal growth factor receptor (Homo sapiens), P00533 [UNDEFINED MUTATION] (P00533 whole entry, looked up, change not shown): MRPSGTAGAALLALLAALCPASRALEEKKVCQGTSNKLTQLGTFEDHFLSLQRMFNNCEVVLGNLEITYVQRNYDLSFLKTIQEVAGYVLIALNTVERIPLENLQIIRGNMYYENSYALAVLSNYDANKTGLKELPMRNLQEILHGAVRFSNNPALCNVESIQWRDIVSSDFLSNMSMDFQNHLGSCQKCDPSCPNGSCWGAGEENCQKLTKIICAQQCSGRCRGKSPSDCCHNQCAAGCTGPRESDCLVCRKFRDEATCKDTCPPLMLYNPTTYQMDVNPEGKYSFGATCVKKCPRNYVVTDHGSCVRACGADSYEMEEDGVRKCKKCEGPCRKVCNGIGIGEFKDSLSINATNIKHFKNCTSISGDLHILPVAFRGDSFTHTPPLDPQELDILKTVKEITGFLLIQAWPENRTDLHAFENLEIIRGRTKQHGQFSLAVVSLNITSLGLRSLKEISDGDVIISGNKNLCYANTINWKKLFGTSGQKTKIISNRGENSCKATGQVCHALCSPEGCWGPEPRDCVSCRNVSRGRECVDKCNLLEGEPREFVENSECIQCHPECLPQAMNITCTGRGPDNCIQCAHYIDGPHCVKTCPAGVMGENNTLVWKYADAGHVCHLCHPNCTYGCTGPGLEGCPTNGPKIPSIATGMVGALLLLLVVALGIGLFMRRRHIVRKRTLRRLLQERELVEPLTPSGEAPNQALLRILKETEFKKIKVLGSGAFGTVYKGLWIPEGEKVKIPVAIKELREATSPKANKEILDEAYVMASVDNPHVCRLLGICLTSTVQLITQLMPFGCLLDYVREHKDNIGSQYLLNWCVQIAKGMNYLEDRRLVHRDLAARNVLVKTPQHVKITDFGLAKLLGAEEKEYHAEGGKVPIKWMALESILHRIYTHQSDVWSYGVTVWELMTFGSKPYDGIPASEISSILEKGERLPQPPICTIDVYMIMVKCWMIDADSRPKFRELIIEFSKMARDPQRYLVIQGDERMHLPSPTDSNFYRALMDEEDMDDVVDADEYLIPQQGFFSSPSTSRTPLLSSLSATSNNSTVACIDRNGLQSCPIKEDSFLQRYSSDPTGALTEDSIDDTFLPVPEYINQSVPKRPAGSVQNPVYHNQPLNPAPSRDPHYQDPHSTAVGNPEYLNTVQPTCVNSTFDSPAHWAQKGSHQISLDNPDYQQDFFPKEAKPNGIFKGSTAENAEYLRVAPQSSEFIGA
# [7] = target: T3, Ephrin type-A receptor 3 (Homo sapiens) (UniProt P29320); experiment: Selectivity interaction (LanthaScreen Eu Kinase Binding Assay) EUB0001632a EPHA3; conditions: at 10 µM
# T3 sequence (whole entry): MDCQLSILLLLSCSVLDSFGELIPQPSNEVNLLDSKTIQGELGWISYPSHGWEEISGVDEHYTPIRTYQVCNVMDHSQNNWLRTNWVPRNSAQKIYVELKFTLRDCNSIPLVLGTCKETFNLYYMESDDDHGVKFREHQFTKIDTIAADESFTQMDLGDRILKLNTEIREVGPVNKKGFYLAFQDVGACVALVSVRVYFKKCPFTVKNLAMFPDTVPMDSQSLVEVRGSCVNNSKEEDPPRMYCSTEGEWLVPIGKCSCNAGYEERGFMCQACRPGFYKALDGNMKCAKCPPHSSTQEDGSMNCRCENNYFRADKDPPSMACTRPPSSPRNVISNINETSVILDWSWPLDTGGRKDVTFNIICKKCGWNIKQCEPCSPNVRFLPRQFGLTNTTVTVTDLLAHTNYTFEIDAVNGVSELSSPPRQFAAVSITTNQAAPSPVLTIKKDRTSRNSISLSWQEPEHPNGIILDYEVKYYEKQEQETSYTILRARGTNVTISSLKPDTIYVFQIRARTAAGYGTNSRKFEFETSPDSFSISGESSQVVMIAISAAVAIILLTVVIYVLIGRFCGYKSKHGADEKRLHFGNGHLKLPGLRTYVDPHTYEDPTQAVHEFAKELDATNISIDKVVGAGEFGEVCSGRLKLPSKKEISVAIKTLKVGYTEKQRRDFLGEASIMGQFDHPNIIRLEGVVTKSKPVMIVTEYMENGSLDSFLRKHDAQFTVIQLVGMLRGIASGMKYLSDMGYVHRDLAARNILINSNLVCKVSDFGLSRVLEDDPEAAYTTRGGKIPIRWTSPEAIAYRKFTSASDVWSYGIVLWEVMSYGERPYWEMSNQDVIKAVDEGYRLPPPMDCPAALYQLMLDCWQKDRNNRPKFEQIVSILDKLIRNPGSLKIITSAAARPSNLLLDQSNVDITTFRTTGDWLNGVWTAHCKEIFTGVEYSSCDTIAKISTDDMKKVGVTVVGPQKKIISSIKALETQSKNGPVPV
# Sequence of Serine/threonine-protein kinase 26 (Q9P289 2-416 limits assumed): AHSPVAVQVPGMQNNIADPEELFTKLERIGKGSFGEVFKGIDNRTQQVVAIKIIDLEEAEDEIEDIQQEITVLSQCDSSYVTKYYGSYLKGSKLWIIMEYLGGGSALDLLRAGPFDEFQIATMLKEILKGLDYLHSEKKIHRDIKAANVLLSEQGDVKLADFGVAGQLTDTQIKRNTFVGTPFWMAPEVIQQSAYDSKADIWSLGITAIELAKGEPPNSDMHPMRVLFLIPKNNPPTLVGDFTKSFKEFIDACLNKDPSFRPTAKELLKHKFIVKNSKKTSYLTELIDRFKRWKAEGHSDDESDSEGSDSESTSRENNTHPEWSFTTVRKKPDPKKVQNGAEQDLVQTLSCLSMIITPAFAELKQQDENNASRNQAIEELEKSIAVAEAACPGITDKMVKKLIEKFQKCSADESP
smiles,measurement,setting,value
CC(=O)Nc1cccc(-n2c(=O)n(C3CC3)c(=O)c3c(Nc4ccc(I)cc4F)n(C)c(=O)c(C)c32)c1,% of control,[1],101%
N#Cc1cccc(-c2c[nH]c3ncnc(N4CCOCC4)c23)c1,% of control,[2],7%
same,% of inhibition,[3],6%
CC[C@@H]1[C@H](F)C(=O)N[C@@H]1COc1nccc2cc(C(N)=O)c(OC)cc12 [ZIMLOVISERTIB],% of inhibition,[4],-5.38%
COc1cc(N(C)c2ccnc3ccc(C(F)(F)F)cc23)cc(OC)c1OC,% binding,[5],82%
same,% binding,[6],95%
Cn1cc(-n2cnc3c(NCc4nc5cc(Cl)c(Cl)cc5[nH]4)nc(N4CCOCC4)nc32)cn1,% of inhibition,[7],-19.5%
